Experimental data from patent US9326506B2, “Preparation method, agricultural composition and applications of natural brassinolide analogs” (CHENGDU NEWSUN CROPSCIENCE CO., LTD, priority 2012, dated 2016).

System: rice
Experiment: Low temperature assay on rice seedlings
Type: in vivo
Experimental: According to a low temperature assay, we measured parameters including plant height, number of leaf, area of leaf, number of tiller, weight of root at low temperature to completely determine effects of the natural brassinolide analogues on the resistance to low temperature of a plant.
The natural brassinolide analogues, BR1, BR2, BR3, BR4, BR5 and BR6, used herein, were those prepared by the method of Example 1. Respectively the analogues were dissolved into 95% (V/V) ethanol solution, and then diluted with pure water to 1 mg/L, 0.1 mg/L, 0.01 mg/L, 0.001 mg/L and 0.0001 mg/L. In addition, pure water was used as a control.
After rice seeds were disinfected by using 5% sodium hypochlorite solution treatment, they were rinsed with distilled water until their pH>7, placed into a petri dish in a dark incubator, and cultured by using water at 30° C.±2° C. for 9 days. Then respectively the nine-day-old etiolated seedlings of rice were immersed in the above solutions containing different concentrations of the natural brassinolide analogues or pure water, and cultured at the temperature of 1° C., 2° C., 3° C., 4° C. and 5° C. for 24 hr. The parameters including plant height, area of leaf and weight of root after 3, 6, 9 and 12 days and number of leaf and number of tiller after 12 days were measured.

CC(C)C[C@@H](O)[C@H](O)[C@@H](C)[C@H]1CCC2C3CC(=O)C4C[C@H](O)[C@H](O)C[C@]4(C)C3CC[C@@]21C (stereo partly drawn) [BR5]
Area of leaf (0.0001 mg/l, 1 °C, 3 days): 9.8 cm^2 | Height (0.0001 mg/l, 1 °C, 3 days): 6.8 cm | Weight of root (0.0001 mg/l, 1 °C, 3 days): 2.8 g | Area of leaf (0.0001 mg/l, 1 °C, 6 days): 11.2 cm^2 | Height (0.0001 mg/l, 1 °C, 6 days): 6.9 cm | Weight of root (0.0001 mg/l, 1 °C, 6 days): 3.1 g | Area of leaf (0.0001 mg/l, 1 °C, 9 days): 12 cm^2 | Height (0.0001 mg/l, 1 °C, 9 days): 7 cm | Weight of root (0.0001 mg/l, 1 °C, 9 days): 3.4 g | Area of leaf (0.0001 mg/l, 1 °C, 12 days): 13.1 cm^2 | Height (0.0001 mg/l, 1 °C, 12 days): 7.2 cm | Number of leaf (0.0001 mg/l, 1 °C, 12 days): 3 | Number of tiller (0.0001 mg/l, 1 °C, 12 days): 3 | Weight of root (0.0001 mg/l, 1 °C, 12 days): 3.6 g | Area of leaf (0.0001 mg/l, 2 °C, 3 days): 10 cm^2 | Height (0.0001 mg/l, 2 °C, 3 days): 6.8 cm | Weight of root (0.0001 mg/l, 2 °C, 3 days): 2.8 g | Area of leaf (0.0001 mg/l, 2 °C, 6 days): 11.7 cm^2 | Height (0.0001 mg/l, 2 °C, 6 days): 7 cm | Weight of root (0.0001 mg/l, 2 °C, 6 days): 3.0 g | Area of leaf (0.0001 mg/l, 2 °C, 9 days): 12.4 cm^2 | Height (0.0001 mg/l, 2 °C, 9 days): 7.1 cm | Weight of root (0.0001 mg/l, 2 °C, 9 days): 3.2 g | Area of leaf (0.0001 mg/l, 2 °C, 12 days): 13 cm^2 | Height (0.0001 mg/l, 2 °C, 12 days): 7.4 cm | Number of leaf (0.0001 mg/l, 2 °C, 12 days): 3 | Number of tiller (0.0001 mg/l, 2 °C, 12 days): 3 | Weight of root (0.0001 mg/l, 2 °C, 12 days): 3.4 g | Area of leaf (0.0001 mg/l, 3 °C, 3 days): 10 cm^2 | Height (0.0001 mg/l, 3 °C, 3 days): 6.9 cm | Weight of root (0.0001 mg/l, 3 °C, 3 days): 2.5 g | Area of leaf (0.0001 mg/l, 3 °C, 6 days): 11.8 cm^2 | Height (0.0001 mg/l, 3 °C, 6 days): 7.2 cm | Weight of root (0.0001 mg/l, 3 °C, 6 days): 2.6 g | Area of leaf (0.0001 mg/l, 3 °C, 9 days): 12.3 cm^2 | Height (0.0001 mg/l, 3 °C, 9 days): 7.4 cm | Weight of root (0.0001 mg/l, 3 °C, 9 days): 2.9 g | Area of leaf (0.0001 mg/l, 3 °C, 12 days): 13.2 cm^2 | Height (0.0001 mg/l, 3 °C, 12 days): 7.5 cm | Number of leaf (0.0001 mg/l, 3 °C, 12 days): 3 | Number of tiller (0.0001 mg/l, 3 °C, 12 days): 2 | Weight of root (0.0001 mg/l, 3 °C, 12 days): 2.9 g | Area of leaf (0.0001 mg/l, 4 °C, 3 days): 10 cm^2 | Height (0.0001 mg/l, 4 °C, 3 days): 6.9 cm | Weight of root (0.0001 mg/l, 4 °C, 3 days): 2.5 g | Area of leaf (0.0001 mg/l, 4 °C, 6 days): 11.7 cm^2 | Height (0.0001 mg/l, 4 °C, 6 days): 7.3 cm | Weight of root (0.0001 mg/l, 4 °C, 6 days): 2.6 g | Area of leaf (0.0001 mg/l, 4 °C, 9 days): 13 cm^2 | Height (0.0001 mg/l, 4 °C, 9 days): 7.5 cm | Weight of root (0.0001 mg/l, 4 °C, 9 days): 2.7 g | Area of leaf (0.0001 mg/l, 4 °C, 12 days): 13.4 cm^2 | Height (0.0001 mg/l, 4 °C, 12 days): 7.6 cm | Number of leaf (0.0001 mg/l, 4 °C, 12 days): 3 | Number of tiller (0.0001 mg/l, 4 °C, 12 days): 2 | Weight of root (0.0001 mg/l, 4 °C, 12 days): 2.9 g | Area of leaf (0.0001 mg/l, 5 °C, 3 days): 10.2 cm^2 | Height (0.0001 mg/l, 5 °C, 3 days): 7.0 cm | Weight of root (0.0001 mg/l, 5 °C, 3 days): 2.5 g | Area of leaf (0.0001 mg/l, 5 °C, 6 days): 12 cm^2 | Height (0.0001 mg/l, 5 °C, 6 days): 7.2 cm | Weight of root (0.0001 mg/l, 5 °C, 6 days): 2.7 g | Area of leaf (0.0001 mg/l, 5 °C, 9 days): 13.2 cm^2 | Height (0.0001 mg/l, 5 °C, 9 days): 7.5 cm | Weight of root (0.0001 mg/l, 5 °C, 9 days): 2.9 g | Area of leaf (0.0001 mg/l, 5 °C, 12 days): 14 cm^2 | Height (0.0001 mg/l, 5 °C, 12 days): 7.7 cm | Number of leaf (0.0001 mg/l, 5 °C, 12 days): 3 | Number of tiller (0.0001 mg/l, 5 °C, 12 days): 2 | Weight of root (0.0001 mg/l, 5 °C, 12 days): 3.0 g | Area of leaf (0.001 mg/l, 1 °C, 3 days): 10.1 cm^2 | Height (0.001 mg/l, 1 °C, 3 days): 6.9 cm | Weight of root (0.001 mg/l, 1 °C, 3 days): 2.8 g | Area of leaf (0.001 mg/l, 1 °C, 6 days): 11.3 cm^2 | Height (0.001 mg/l, 1 °C, 6 days): 7.1 cm | Weight of root (0.001 mg/l, 1 °C, 6 days): 3.1 g | Area of leaf (0.001 mg/l, 1 °C, 9 days): 12.8 cm^2 | Height (0.001 mg/l, 1 °C, 9 days): 7.2 cm | Weight of root (0.001 mg/l, 1 °C, 9 days): 3.3 g | Area of leaf (0.001 mg/l, 1 °C, 12 days): 13 cm^2 | Height (0.001 mg/l, 1 °C, 12 days): 7.3 cm | Number of leaf (0.001 mg/l, 1 °C, 12 days): 3 | Number of tiller (0.001 mg/l, 1 °C, 12 days): 3 | Weight of root (0.001 mg/l, 1 °C, 12 days): 3.9 g | Area of leaf (0.001 mg/l, 2 °C, 3 days): 9.8 cm^2 | Height (0.001 mg/l, 2 °C, 3 days): 6.9 cm | Weight of root (0.001 mg/l, 2 °C, 3 days): 2.8 g
